Data published in the supplement of paper PMC10307832.

What was measured:
Assay in all cases: relative viability (nuclei count vs DMSO), 5 days (fraction); higher = more cells survive
ChaGo-K-1 = system: ChaGo-K-1
Procedure, shortened: (§1)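 Five library-drug doses in √10 steps were combined with a fixed anchor-drug dose, or a single drug was given alone, by pin tool to lung cancer cell lines in 1536-well plates the day after seeding. Nuclei were stained and counted after 5 days. Relative viability is the nuclei count in treated wells over that in vehicle wells, taken as the median of duplicate plates.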

LK-2 = system: LK-2
Procedure, shortened: as §1

HCC-827 = system: HCC-827
Procedure, shortened: as §1

NCI-H2126 = system: NCI-H2126
Procedure, shortened: as §1

NCI-H2085 = system: NCI-H2085
Procedure, shortened: as §1

NCI-H23 = system: NCI-H23
Procedure, shortened: as §1

EPLC-272H = system: EPLC-272H
Procedure, shortened: as §1

LU99A = system: LU99A
Procedure, shortened: as §1

NCI-H1666 = system: NCI-H1666
Procedure, shortened: as §1

NCI-H1975 = system: NCI-H1975
Procedure, shortened: as §1

HCC-78 = system: HCC-78
Procedure, shortened: as §1

LOU-NH91 = system: LOU-NH91
Procedure, shortened: as §1

LXF-289 = system: LXF-289
Procedure, shortened: as §1

LCLC-103H = system: LCLC-103H
Procedure, shortened: as §1

EMC-BAC-2 = system: EMC-BAC-2
Procedure, shortened: as §1

NCI-H322M = system: NCI-H322M
Procedure, shortened: as §1

NCI-H2405 = system: NCI-H2405
Procedure, shortened: as §1

SW 1573 = system: SW 1573
Procedure, shortened: as §1

RERF-LC-KJ = system: RERF-LC-KJ
Procedure, shortened: as §1

NCI-H1563 = system: NCI-H1563
Procedure, shortened: as §1

SW 900 = system: SW 900
Procedure, shortened: as §1

NCI-H3122 = system: NCI-H3122
Procedure, shortened: as §1

SK-LU-1 = system: SK-LU-1
Procedure, shortened: as §1

NC(=O)Nc1cc(-c2cccc(F)c2)sc1C(=O)N[C@H]1CCCNC1 [AZD7762] + Cc1nc(Nc2ncc(C(=O)Nc3c(C)cccc3Cl)s2)cc(N2CCN(CCO)CC2)n1 [Dasatinib] (partner 0.075 µM)
relative viability (ChaGo-K-1; first compound 0.01 µM): 0.572
relative viability (ChaGo-K-1; first compound 0.03162 µM): 0.575
relative viability (ChaGo-K-1; first compound 0.1 µM): 0.583
relative viability (ChaGo-K-1; first compound 0.3162 µM): 0.487
relative viability (ChaGo-K-1; first compound 1 µM): 0.583
relative viability (LK-2; first compound 0.01 µM): 0.269
relative viability (LK-2; first compound 0.03162 µM): 0.266
relative viability (LK-2; first compound 0.1 µM): 0.283
relative viability (LK-2; first compound 0.3162 µM): 0.27
relative viability (LK-2; first compound 1 µM): 0.298
relative viability (HCC-827; first compound 0.01 µM): 0.418
relative viability (HCC-827; first compound 0.03162 µM): 0.335
relative viability (HCC-827; first compound 0.1 µM): 0.302
relative viability (HCC-827; first compound 0.3162 µM): 0.31
relative viability (HCC-827; first compound 1 µM): 0.186
relative viability (NCI-H2126; first compound 0.01 µM): 0.658
relative viability (NCI-H2126; first compound 0.03162 µM): 0.665
relative viability (NCI-H2126; first compound 0.1 µM): 0.639
relative viability (NCI-H2126; first compound 0.3162 µM): 0.648
relative viability (NCI-H2126; first compound 1 µM): 0.402
relative viability (NCI-H2085; first compound 0.01 µM): 0.247
relative viability (NCI-H2085; first compound 0.03162 µM): 0.254
relative viability (NCI-H2085; first compound 0.1 µM): 0.243
relative viability (NCI-H2085; first compound 0.3162 µM): 0.201
relative viability (NCI-H2085; first compound 1 µM): 0.216
relative viability (NCI-H23; first compound 0.01 µM): 0.961
relative viability (NCI-H23; first compound 0.03162 µM): 0.832
relative viability (NCI-H23; first compound 0.1 µM): 0.877
relative viability (NCI-H23; first compound 0.3162 µM): 0.567
relative viability (NCI-H23; first compound 1 µM): 0.313
relative viability (EPLC-272H; first compound 0.01 µM): 0.338
relative viability (EPLC-272H; first compound 0.03162 µM): 0.384
relative viability (EPLC-272H; first compound 0.1 µM): 0.365
relative viability (EPLC-272H; first compound 0.3162 µM): 0.3
relative viability (EPLC-272H; first compound 1 µM): 0.0994
relative viability (LU99A; first compound 0.01 µM): 0.551
relative viability (LU99A; first compound 0.03162 µM): 0.573
relative viability (LU99A; first compound 0.1 µM): 0.51
relative viability (LU99A; first compound 0.3162 µM): 0.419
relative viability (LU99A; first compound 1 µM): 0.202
relative viability (NCI-H1666; first compound 0.01 µM): 0.909
relative viability (NCI-H1666; first compound 0.03162 µM): 0.88
relative viability (NCI-H1666; first compound 0.1 µM): 0.838
relative viability (NCI-H1666; first compound 0.3162 µM): 0.593
relative viability (NCI-H1666; first compound 1 µM): 0.594
relative viability (NCI-H1975; first compound 0.01 µM): 0.339
relative viability (NCI-H1975; first compound 0.03162 µM): 0.347
relative viability (NCI-H1975; first compound 0.1 µM): 0.42
relative viability (NCI-H1975; first compound 0.3162 µM): 0.305
relative viability (NCI-H1975; first compound 1 µM): 0.242
relative viability (HCC-78; first compound 0.01 µM): 0.409
relative viability (HCC-78; first compound 0.03162 µM): 0.606
relative viability (HCC-78; first compound 0.1 µM): 0.451
relative viability (HCC-78; first compound 0.3162 µM): 0.353
relative viability (HCC-78; first compound 1 µM): 0.232
relative viability (LOU-NH91; first compound 0.01 µM): 0.561
relative viability (LOU-NH91; first compound 0.03162 µM): 0.596
relative viability (LOU-NH91; first compound 0.1 µM): 0.558
relative viability (LOU-NH91; first compound 0.3162 µM): 0.517
relative viability (LOU-NH91; first compound 1 µM): 0.49
relative viability (LXF-289; first compound 0.01 µM): 0.225
relative viability (LXF-289; first compound 0.03162 µM): 0.245
relative viability (LXF-289; first compound 0.1 µM): 0.219
relative viability (LXF-289; first compound 0.3162 µM): 0.187
relative viability (LXF-289; first compound 1 µM): 0.211
relative viability (LCLC-103H; first compound 0.01 µM): 0.555
relative viability (LCLC-103H; first compound 0.03162 µM): 0.463
relative viability (LCLC-103H; first compound 0.1 µM): 0.422
relative viability (LCLC-103H; first compound 0.3162 µM): 0.515
relative viability (LCLC-103H; first compound 1 µM): 0.284
relative viability (EMC-BAC-2; first compound 0.01 µM): 0.373
relative viability (EMC-BAC-2; first compound 0.03162 µM): 0.37
relative viability (EMC-BAC-2; first compound 0.1 µM): 0.359
relative viability (EMC-BAC-2; first compound 0.3162 µM): 0.346
relative viability (EMC-BAC-2; first compound 1 µM): 0.322
relative viability (NCI-H322M; first compound 0.01 µM): 0.258
relative viability (NCI-H322M; first compound 0.03162 µM): 0.237
relative viability (NCI-H322M; first compound 0.1 µM): 0.286
relative viability (NCI-H322M; first compound 0.3162 µM): 0.279
relative viability (NCI-H322M; first compound 1 µM): 0.256
relative viability (NCI-H2405; first compound 0.01 µM): 0.234
relative viability (NCI-H2405; first compound 0.03162 µM): 0.216
relative viability (NCI-H2405; first compound 0.1 µM): 0.228
relative viability (NCI-H2405; first compound 0.3162 µM): 0.157
relative viability (NCI-H2405; first compound 1 µM): 0.177
relative viability (SW 1573; first compound 0.01 µM): 0.576
relative viability (SW 1573; first compound 0.03162 µM): 0.561
relative viability (SW 1573; first compound 0.1 µM): 0.45
relative viability (SW 1573; first compound 0.3162 µM): 0.247
relative viability (SW 1573; first compound 1 µM): 0.121
relative viability (RERF-LC-KJ; first compound 0.01 µM): 0.847
relative viability (RERF-LC-KJ; first compound 0.03162 µM): 0.896
relative viability (RERF-LC-KJ; first compound 0.1 µM): 0.858
relative viability (RERF-LC-KJ; first compound 0.3162 µM): 0.782
relative viability (RERF-LC-KJ; first compound 1 µM): 0.563
relative viability (NCI-H1563; first compound 0.01 µM): 0.451
relative viability (NCI-H1563; first compound 0.03162 µM): 0.492
relative viability (NCI-H1563; first compound 0.1 µM): 0.5
relative viability (NCI-H1563; first compound 0.3162 µM): 0.524
relative viability (NCI-H1563; first compound 1 µM): 0.419
relative viability (SW 900; first compound 0.01 µM): 0.421
relative viability (SW 900; first compound 0.03162 µM): 0.776
relative viability (SW 900; first compound 0.1 µM): 0.625
relative viability (SW 900; first compound 0.3162 µM): 0.674
relative viability (SW 900; first compound 1 µM): 0.165
relative viability (NCI-H3122; first compound 0.01 µM): 0.893
relative viability (NCI-H3122; first compound 0.03162 µM): 0.739
relative viability (NCI-H3122; first compound 0.1 µM): 0.823
relative viability (NCI-H3122; first compound 0.3162 µM): 0.544
relative viability (NCI-H3122; first compound 1 µM): 0.625
relative viability (SK-LU-1; first compound 0.01 µM): 0.183
relative viability (SK-LU-1; first compound 0.03162 µM): 0.158
relative viability (SK-LU-1; first compound 0.1 µM): 0.108
relative viability (SK-LU-1; first compound 0.3162 µM): 0.126
relative viability (SK-LU-1; first compound 1 µM): 0.128
